Experimental data published in the NIST ThermoML archive (doi:10.1021/je700072a).
Numbers after ± are expanded uncertainties.

What was measured:
[1] = Crystal; visual observation
[2] = molar heat capacity at constant pressure; details: 101.33 kPa, Crystal

NC[C@H]1CC[C@H](C(=O)O)CC1 [trans-4-(aminomethyl)cyclohexanecarboxylic acid]
Details | Normal melting temperature [°C]
[1] | 249.00 ± 4

[2]
Details | molar heat capacity at constant pressure [J/K/mol]
82.12 K | 74.7 ± 1.5
86.25 K | 76.89 ± 1.5
90.28 K | 79.76 ± 1.6
94.31 K | 82.4 ± 1.6
98.35 K | 85 ± 1.7
102.41 K | 87.81 ± 1.7
106.49 K | 90.49 ± 1.7
110.6 K | 93.05 ± 1.8
114.62 K | 95.54 ± 1.8
118.68 K | 98.24 ± 1.8
122.78 K | 100.67 ± 1.9
126.81 K | 103.29 ± 1.9
130.9 K | 105.64 ± 1.9
135.04 K | 107.88 ± 2
139.12 K | 109.84 ± 2
143.27 K | 111.62 ± 2
147.47 K | 113.47 ± 2
151.62 K | 115.25 ± 2
155.73 K | 116.97 ± 2.1
159.91 K | 118.97 ± 2.1
164.15 K | 120.5 ± 2.1
168.36 K | 122.02 ± 2.1
172.53 K | 123.18 ± 2.1
176.78 K | 124.4 ± 2.2
181.09 K | 125.84 ± 2.2
185.38 K | 127.19 ± 2.2
189.63 K | 128.43 ± 2.2
193.83 K | 129.9 ± 2.2
198.09 K | 130.84 ± 2.2
202.43 K | 132.24 ± 2.3
206.76 K | 133.38 ± 2.3
211.06 K | 134.92 ± 2.3
215.33 K | 136.11 ± 2.3
219.57 K | 138 ± 2.3
223.88 K | 139.22 ± 2.4
228.26 K | 141.19 ± 2.4
232.59 K | 143.17 ± 2.4
236.84 K | 145.38 ± 2.4
240.99 K | 147.84 ± 2.5
245.16 K | 149.97 ± 2.5
249.36 K | 153.29 ± 2.5
253.5 K | 156.23 ± 2.6
257.64 K | 159.56 ± 2.6
261.72 K | 162.66 ± 2.6
265.9 K | 166 ± 2.7
270.14 K | 168.94 ± 2.7
274.32 K | 172.81 ± 2.8
278.44 K | 176.02 ± 2.8
282.51 K | 180.3 ± 2.9
286.62 K | 184.12 ± 2.9
290.75 K | 187.46 ± 2.9
294.85 K | 190.4 ± 3
298.94 K | 194.15 ± 3
303.01 K | 197.05 ± 3.1
307.17 K | 200.02 ± 3.1
311.37 K | 202.88 ± 3.1
315.53 K | 205.54 ± 3.2
319.67 K | 209.32 ± 3.2
323.79 K | 212.66 ± 3.3
327.88 K | 215.68 ± 3.3
331.96 K | 219.46 ± 3.3
336.09 K | 222.93 ± 3.4
340.27 K | 226.39 ± 3.4
344.44 K | 229.61 ± 3.5
348.6 K | 233.13 ± 3.5
352.73 K | 236.69 ± 3.5
356.85 K | 239.65 ± 3.6
360.96 K | 242.26 ± 3.6
365.13 K | 245.3 ± 3.7
369.37 K | 248.57 ± 3.7
373.63 K | 252.41 ± 3.8
377.94 K | 254.98 ± 3.8
